{"source": "patent US9220682B2", "about": "“Nanocarrier therapy for treating invasive tumors” (Emory University, priority 2009, dated 2015)", "key": {"[1]": {"tested_on": "HIF2a", "conditions": "WM35 PKB cells, 5 micromolar, 24 hours; cited from earlier work"}, "[2]": {"test": "Pharmacokinetics of free versus liposomal IB (Example 3)", "assay_type": "in vivo", "conditions": "rat, tail vein, 20 mg/kg, Cremaphor formulation", "method": "FIG. 5 is a chart showing the pharmacokinetics of free versus encapsulated imipramine blue, in terms of plasma concentration (mg/ml) over time (hours).\nAnimals were injected via tail vein with 20 mg/kg liposomal or free IB. Orbital blood draws were performed at intervals and blood collected, centrifuged, and serum read at 610 nm absorbance for pharmacokinetics. […] For biodistribution, animals were perfused with saline, organs collected, homogenized, and drug extracted with DMSO and read at 610 nm absorbance.\nThe circulation time of the free imipramine blue was tested in a Cremaphor formulation similar to that of paclitaxel."}, "[3]": {"tested_on": "RT2 glioma cells", "test": "Actin staining of IB-treated glioma cells", "assay_type": "cell-based, rat", "conditions": "24 hours, versus ethanol", "method": "FIGS. 9A and 9B are photomicrographs showing the results of in vitro treatment of RT2 glioma cells with IB. Cells were treated with ethanol […] or IB […] and stained for actin (red) and nuclei (blue).\nThe ability of IB to impact invasion capability of glioma cells was tested further in vitro. Cells were treated for 24 hours with either IB dissolved in ethanol or an equivalent volume of ethanol."}, "[4]": {"tested_on": "RT2 rat astrocytoma cell line", "test": "Cytotoxicity and proliferation assays using CCK8", "assay_type": "cell-based", "method": "(§1) FIG. 1a is a bar graph showing the effects of IB on cell growth in vitro, in terms of normalized cell viability.\n(§2) An aggressive rat astrocytoma cell line, RT2, was maintained in vitro. This cell line was used to test 24 compounds at varying concentrations in cytotoxicity and proliferation assays using CCK8 (Dojindo), a tetrazolium salt based assay. Compounds without detrimental effects on viability and growth were tested using the Boyden chamber invasion assay at 48 hours. Compounds were also tested for viability against astrocyte cultures using CCK8. Of these compounds, several were identified as anti-invasive. However, several compounds were toxic to astrocytes in culture and several were cytotoxic and not in fact anti-invasive."}, "[5]": {"tested_on": "astrocytes", "test": "Viability against astrocyte cultures using CCK8", "assay_type": "cell-based", "conditions": "CCK8, 5 μg/ml", "method": "as §1, §2"}, "[6]": {"tested_on": "RT2 rat astrocytoma cell line", "test": "Boyden chamber invasion assay at 48 hours", "assay_type": "cell-based", "conditions": "RT2 cells, 0.01-5 μg/ml", "method": "FIG. 1b is a bar graph showing the dose dependent effects of IB on invasion using a Boyden Chamber Assay. […] At concentrations above 20 μg/ml, IB was cytotoxic to cancer, and not just anti-invasive.\nas §2\nIt also is benign to astrocyte co-culture making it safer for delivery to the brain (FIG. 3a). The compound is blue in color with an absorbance at 610 nm making it easily assayable. […] At concentrations above 20 μg/ml, IB was cytotoxic to cancer and not just anti-invasive."}, "[7]": {"test": "Plasma clearance of free IB versus Nano-IB (Example 6)", "assay_type": "in vivo, rat", "conditions": "non tumor-bearing adult male rats, tail vein, readings over 1 hour", "protocol": "Imipramine Blue liposomes were injected via the tail vein into adult male rats (non tumor-bearing). Blood samples were taken via the orbital cavity at different time points after drug administration, plasma separated and analyzed for IB content via absorbance readings on spectrophotometer."}, "[8]": {"tested_on": "glioma cells", "test": "Invasion assay at 24 hours, encapsulated versus free drug", "assay_type": "cell-based", "method": "FIG. 4 is a chart showing the results of an invasion assay at 24 hours, showing invasion (%) over time (24 hours).\nAn invasion assay was performed at 24 hours. The encapsulated formulation was compared to tree drug in vitro and was still active as an anti-invasive agent. Encapsulation of the compound in liposomes is reproducible and consistent between batched."}}, "note": "Entries after “also recorded” stand apart in the source; their conditions may differ.", "data": [{"compound": "CCN(CC)c1ccc(C(c2ccc(N(CC)CC)cc2)=c2ccc3c(c2)CCc2ccccc2[N+]=3CCCN(C)C)cc1", "note": "[IB, Imipramine Blue]", "values": [{"measurement": "inhibition of HIF2a expression", "setting": "[1]", "result": "around 90%"}, {"measurement": "half-life of free IB", "setting": "[2]", "result": 11, "unit": "min"}, {"measurement": "half-life of free IB", "setting": "[2]; listed as free imipramine blue", "result": "around 11 minutes"}, {"measurement": "effect on cytoskeleton", "setting": "[3]", "result": "alters the arrangement of the cytoskeleton"}, {"measurement": "concentration at which IB is cytotoxic to cancer", "setting": "[4]", "result": "above 20 μg/ml"}, {"measurement": "proliferation of RT2 cells", "setting": "[4]; CCK8", "result": "not antiproliferative; also recorded: not particularly cytotoxic or anti-proliferative"}, {"measurement": "cytotoxicity to RT2 cells", "setting": "[4]; CCK8, at anti-invasive concentrations", "result": "not particularly cytotoxic"}, {"measurement": "effect on astrocyte culture", "setting": "[5]", "result": "benign"}, {"measurement": "anti-invasive effect", "setting": "[6]", "result": "highest anti-invasive properties; also recorded: dose-dependent anti-invasive response"}, {"measurement": "half-life of free IB", "setting": "[7]", "result": 12, "unit": "min"}, {"measurement": "invasion relative to control (100 percent)", "setting": "[8]", "result": "around 60%"}]}]}
